Experimental data reported in patent publication US10137112B2, “Methods for treating hyperuricemia in patients with gout using halofenate or halofenic acid and a second urate-lowering agent” (CymaBay Therapeutics, Inc., priority 2011, dated 2018).
Values joined by “and” are separate entries in the source; they are usually repeats but may differ in a detail not shown here. Equal values may be shown once.

What was measured:
[1] = tested on: serum uric acid (sUA); assay: Example 2 clinical trial: arhalofenate 400 mg increasing to 600 mg in combination with febuxostat 80 mg in gout patients with hyperuricemia, serum uric acid; type: in vivo, human; details: Day 8, after 1 week febuxostat 80 mg daily
Protocol: This study evaluated the efficacy, safety and tolerability of arhalofenate at 400 mg increasing to 600 mg daily orally in combination with febuxostat 80 mg daily orally in gout patients (per criteria of the American Rheumatism Association) with hyperuricemia.
In addition to colchicine 0.6 mg daily for flare prophylaxis, all patients received febuxostat and arhalofenate in the following order during the Treatment Phase: • Days 1 through 7: febuxostat 80 mg orally once daily (febuxostat only period) • Days 8 through 21: febuxostat 80 mg plus arhalofenate 400 mg orally once daily (febuxostat plus arhalofenate 400 mg period) • Days 22 through 35: febuxostat 80 mg plus arhalofenate 600 mg orally once daily (febuxostat plus arhalofenate 600 mg period)
The sUA levels were assessed before the start of each dosing period (Day 1, Day 8, Day 22) and at the end of the Treatment Phase (Day 36). Serum urate levels were also measured on the last day of each dosing period (Day 7, Day 21, and Day 35) at 4 different time points; pre-dose (fasting), 2 hours post-dose, 6 hours post-dose, and 10 hours post-dose.
Dose/Route/Regimen • Colchicine: 0.6 mg/oral/daily from Day −16 through Day 49 • Febuxostat: 80 mg/oral/daily from Day 1 through Day 35 • Arhalofenate: 400 mg/oral daily from Day 8 through Day 21; 600 mg/oral/daily from Day 22 through Day 35
Duration of Treatment • Phase 1: Screening Phase: 1 to 4 weeks • Phase 2: Run-in/Stabilization Phase: ≥2 weeks • Phase 3: Treatment Phase: 5 weeks • Phase 4: Follow-up Phase: 2 weeks

[2] = tested on: serum uric acid (sUA)
Protocol: A randomized, double-blind, placebo-controlled study to evaluate the safety and efficacy of daily oral doses of between 400 to 600 mg of arhalofenate (i.e., (−)-halofenate) in combination with 300 mg oral doses of allopurinol was conducted in gout patients with inadequate hypouricemic (uric acid lowering) response to allopurinol alone.
Patients who met the final eligibility criteria were randomized to each of 3 study arms in the following manner (1:1:1):
Arhalofenate 400 mg (plus allopurinol 300 mg)
Arhalofenate 600 mg (plus allopurinol 300 mg)
Placebo (plus allopurinol 300 mg)
The serum uric acid (sUA) levels were assessed at Day 1, prior to giving blinded study medication, and at Visits Week 2, 3, and 4.
Patients in all treatment groups also took allopurinol 300 mg once daily orally starting at Week −3 during the run-in and continuing through Week 4.
The randomized treatment regimens were as follows (Day 1 through Week 4):
Treatment Group #1: Arhalofenate 400 mg (plus allopurinol)
Treatment Group #2: Arhalofenate 600 mg (plus allopurinol)
Treatment Group #3: Placebo (plus allopurinol)
The effects of each of the three treatment groups were assessed as the change in sUA from baseline to the end of the treatment period for the following endpoints:
Percent change in sUA from baseline at Week 4 of treatment
The proportion of patients achieving a sUA<6 mg/dL at week 4 of treatment
The proportion of patients achieving a sUA<5 mg/dL at week 4 of treatment
The proportion of patients achieving a sUA<4 mg/dL at week 4 of treatment

[3] = tested on: serum uric acid; details: monotherapy at 40, 80, 120, 160 and 240 mg/day; cited from earlier work
[4] = placebo + allopurinol 300 mg once daily oral, Week 4 (LOCF), N = 31
[5] = placebo + allopurinol 300 mg once daily oral, Week 4, N = 31
[6] = placebo + allopurinol 300 mg, Week 4

Cc1nc(-c2ccc(OCC(C)C)c(C#N)c2)sc1C(=O)O [febuxostat, 2-(3-cyano-4-isobutoxyphenyl)-4-methyl-1,3-thiazole-5-carboxylic acid]
mean absolute reduction in sUA from Day 1 [1]: -4.3 mg/dL
mean percent reduction in sUA from Day 1 [1]: −47.8%
Patients reached target: No, sUA < 3.0 mg/dL ([1]; 11 patients): 11 patients
Patients reached target: No, sUA < 4.0 mg/dL ([1]; 11 patients): 10 patients
Patients reached target: No, sUA < 5.0 mg/dL ([1]; 11 patients): 5 patients
Patients reached target: No, sUA < 6.0 mg/dL ([1]; 11 patients): 0 patients
Patients reached target: Yes, sUA < 3.0 mg/dL ([1]; 11 patients): 0 patients
Patients reached target: Yes, sUA < 4.0 mg/dL ([1]; 11 patients): 1 patients
Patients reached target: Yes, sUA < 5.0 mg/dL ([1]; 11 patients): 6 patients
Patients reached target: Yes, sUA < 6.0 mg/dL ([1]; 11 patients): 11 patients
Proportion of patients reached target, sUA < 3.0 mg/dL ([1]; 11 patients): 0.00%
Proportion of patients reached target, sUA < 4.0 mg/dL ([1]; 11 patients): 9% and 9.09%
Proportion of patients reached target, sUA < 5.0 mg/dL ([1]; 11 patients): 55% and 54.55%
Proportion of patients reached target, sUA < 6.0 mg/dL ([1]; 11 patients): 100%

O=c1[nH]cnc2[nH]ncc12 [Placebo + Allopurinol, 1,5-dihydro-4H-pyrazolo [3,4-d]pyrimidin-4-one]
% Change from Baseline in Uric Acid, Mean [2, 4]: −9.5%
% Change from Baseline in Uric Acid, Median [2, 4]: −8.7%
Uric Acid at End of Treatment (LOCF), Mean [2, 5]: 6.3 mg/dL
Uric Acid at End of Treatment (LOCF), Median [2, 5]: 6.2 mg/dL
patients with sUA<4.0 mg/dL by End of Treatment [2, 6]: 1 patients
patients with sUA<5.0 mg/dL by End of Treatment [2, 6]: 4 patients
patients with sUA<6.0 mg/dL by End of Treatment [2, 6]: 11 patients

O=c1[nH]cnc2c(CN3C[C@H](CO)[C@@H](O)C3)c[nH]c12 [Ulodesine, 7-(((3R,4R)-3-hydroxy-4-(hydroxymethyl)pyrrolidin-1-yl)methyl)-3H-pyrrolo[3,2-d]pyrimidin-4(5H)-one]
effect on serum uric acid in gout patients [3]: rapidly and significantly reduced serum uric acid
